According to PMC10922772 (ACS infectious diseases, 2024):
Several values for one entry are separate records, joined by “and”; a condition that tells them apart may be missing. Equal values may be shown once.

Experiments:
SARS-CoV-2 Mpro = SARS-CoV-2 Mpro (Severe acute respiratory syndrome coronavirus 2, UniProt P0DTD1); assay: biochemical; settings: for IC50: IC50, enzyme 100 nM, substrate 20 μM, 10 min preincubation, pH 6.5; for activity reduction vs. compound 30: compared with more active diastereomer of 30; for inhibition at 20 µM: read-out: % inhibition at 20 μM; for fold less active than compound 13: IC50 compared with compound 13
[1] = system: SARS-CoV-2 (Washington strain, 2020); assay: microbe, parasite or virus in culture; assay type: cell-based; settings: for EC68 (half-log reduction of virus titer): 0.01 MOI
[2] = Severe acute respiratory syndrome coronavirus 2, Vero, read-out: inhibition of SARS-CoV-2 replication

With `CC(C)(C)c1ccc(N(C(=O)C2OC2(C)C)C(C(=O)NC2CCCCC2)c2cccnc2)cc1` (centres unmarked) [Compound 36, N-(4-(tert-Butyl)phenyl)-N-(2-(cyclohexylamino)-2-oxo-1-(pyridin-3-yl)ethyl)-3,3-dimethyloxirane-2-carboxamide] the IC50 (SARS-CoV-2 Mpro) was 2500 ± 280 nM, the “activity reduction vs. compound 30” value (SARS-CoV-2 Mpro) was ≤ 3 fold and the “antiviral activity (in words)” value ([1]; at 15 μM, Vero cells) was “inactive”.

Work on `CC(C)(C)NC(=O)C(c1cccnc1)N(C(=O)CCl)c1ccc(C(C)(C)C)cc1` (centres unmarked) [Compound 13, N-(tert-Butyl)-2-(N-(4-(tert-butyl)phenyl)-2-chloroacetamido)-2-(pyridin-3-yl)acetamide] yielded an IC50 (SARS-CoV-2 Mpro) of 600 ± 50 nM, an inhibition at 3 µM [1, 2] of 68% and an inhibition at 5 µM [1, 2] of 97%. For the same compound, the “EC68 (half-log reduction of virus titer)” value ([1]; Vero cells, 48 h) was 3 μM, the titer reduction ([1]; at 3 μM, Vero cells) was 0.5 log and the titer reduction ([1]; at 5 μM, Vero cells) was 1.5 log.

With `CC(C)(C)c1ccc(N(C(=O)C2CO2)C(C(=O)NC2CCCCC2)c2cccnc2)cc1` [(R, S)- and (S, R)-30, N-(4-(tert-Butyl)phenyl)-N-(2-(cyclohexylamino)-2-oxo-1-(pyridin-3-yl)ethyl)oxirane-2-carboxamide] the “activity difference between the two separated diastereomers” value (SARS-CoV-2 Mpro) was > 10 fold, the IC50 (SARS-CoV-2 Mpro) was 760 ± 180 nM and the EC90 ([1]; Severe acute respiratory syndrome coronavirus 2, Vero, 48 h) was 15000 nM. The “EC68 (half-log reduction of virus titer)” value ([1]; Vero cells, 48 h) was 5 μM.

`CC1OC1C(=O)N(c1ccc(C(C)(C)C)cc1)C(C(=O)NC(C)(C)C)c1cccnc1` [(R, S, R)- and (S, R, S)-39, N-(4-(tert-Butyl)phenyl)-N-(2-(tert-butylamino)-2-oxo-1-(pyridin-3-yl)ethyl)-3-methyloxirane-2-carboxamide] gave an IC50 (SARS-CoV-2 Mpro) of 4330 ± 320 nM.

In the case of `CC(C)(C)NC(=O)C(c1cccnc1)N(C(=O)CO)c1ccc(C(C)(C)C)cc1` (centres unmarked) [Compound 32, N-(tert-Butyl)-2-(N-(4-(tert-butyl)phenyl)-2-hydroxyacetamido)-2-(pyridin-3-yl)acetamide], the inhibition at 20 µM (SARS-CoV-2 Mpro) is reported as 21%.

For `CC(C)(C)NC(=O)C(c1cccnc1)N(C(=O)CCl)c1ccc(NC(=O)CCl)cc1` (centres unmarked) [Compound 15, N-(tert-Butyl)-2-(2-chloro-N-(4-(2-chloroacetamido)phenyl)acetamido)-2-(pyridin-3-yl)acetamide], the IC50 (SARS-CoV-2 Mpro) was 3200 ± 790 nM and the “fold less active than compound 13” value (SARS-CoV-2 Mpro) was ~ 5 ×.

`CC(C)(C)NC(=O)C(c1cccnc1)N(C(=O)c1ccco1)c1ccc(CC2CO2)cc1` (centres unmarked) [Compound 4, N-(2-(tert-Butylamino)-2-oxo-1-(pyridin-3-yl)ethyl)-N-(4-(oxiran-2-ylmethyl)phenyl)furan-2-carboxamide] gave an inhibition at 20 µM (SARS-CoV-2 Mpro) of 10%.

`C=CC(=O)Nc1cccc(N(C(=O)c2ccco2)C(C(=O)NCc2ccccc2)c2cccnc2)c1` (centres unmarked) [Compound 10, N-(3-Acrylamidophenyl)-N-(2-(benzylamino)-2-oxo-1-(pyridin-3-yl)ethyl)furan-2-carboxamide] gave an inhibition at 20 µM (SARS-CoV-2 Mpro) of 5%.

With `CC(C)(C)NC(=O)C(c1cccnc1)N(C(=O)CCl)c1ccc(NC(=O)C(Cl)Cl)cc1` (centres unmarked) [Compound 16, N-(tert-Butyl)-2-(2-chloro-N-(4-(2,2-dichloroacetamido)phenyl)acetamido)-2-(pyridin-3-yl)acetamide] the IC50 (SARS-CoV-2 Mpro) was 3600 ± 190 nM and the “fold less active than compound 13” value (SARS-CoV-2 Mpro) was ~ 5 ×.

In the case of `CC1(C(=O)N(c2ccc(C(C)(C)C)cc2)C(C(=O)NC2CCCCC2)c2cccnc2)CO1` (centres unmarked) [Compound 37, N-(4-(tert-Butyl)phenyl)-N-(2-(cyclohexylamino)-2-oxo-1-(pyridin-3-yl)ethyl)-2-methyloxirane-2-carboxamide], the “activity reduction vs. compound 30” value (SARS-CoV-2 Mpro) is reported as > 25 fold and the inhibition at 20 µM (SARS-CoV-2 Mpro) is reported as 28%.

For `CC(C)(C)c1ccc(N(C(=O)CCl)C(C(=O)NC2CCCCC2)c2cccnc2)cc1` (centres unmarked) [Compound 26, N-(4-(tert-Butyl)phenyl)-2-chloro-N-(2-(cyclohexylamino)-2-oxo-1-(pyridin-3-yl)ethyl)acetamide], the IC50 (SARS-CoV-2 Mpro) was 490 ± 220 nM.

For `CC(C)(C)NC(=O)C(c1cccnc1)N(C(=O)CCl)c1ccc(CC2CO2)cc1` (centres unmarked) [Compound 17, N-(tert-Butyl)-2-(2-chloro-N-(4-(oxiran-2-ylmethyl)phenyl)acetamido)-2-(pyridin-3-yl)acetamide], the IC50 (SARS-CoV-2 Mpro) was 3600 ± 300 nM.

`CC(C)(C)c1ccc(N(C(=O)CC#N)C(C(=O)NC2CCCCC2)c2cccnc2)cc1` (centres unmarked) [Compound 34, N-(4-(tert-Butyl)phenyl)-2-cyano-N-(2-(cyclohexylamino)-2-oxo-1-(pyridin-3-yl)ethyl)acetamide] showed an inhibition at 20 µM (SARS-CoV-2 Mpro) of 28%.

`COc1ccc(N(C(=O)CCl)C(C(=O)NC(C)(C)C)c2cccnc2)cc1` (centres unmarked) [Compound 22, N-(tert-Butyl)-2-(2-chloro-N-(4-methoxyphenyl)acetamido)-2-(pyridin-3-yl)acetamide] was tested, and the IC50 (SARS-CoV-2 Mpro) was 1600 nM and 1610 nM.

Work on `CC(C)(C)NC(=O)C(c1cccnc1)N(C(=O)C1(C)CO1)c1ccc(C(C)(C)C)cc1` (centres unmarked) [Compound 41, N-(4-(tert-Butyl)phenyl)-N-(2-(tert-butylamino)-2-oxo-1-(pyridin-3-yl)ethyl)-2-methyloxirane-2-carboxamide] yielded an inhibition at 20 µM (SARS-CoV-2 Mpro) of 22%.

For `CC1OC1C(=O)N(c1ccc(C(C)(C)C)cc1)C(C(=O)NC1CCCCC1)c1cccnc1` [(R, S, R)- and (S, R, S)-35, N-(4-(tert-Butyl)phenyl)-N-(2-(cyclohexylamino)-2-oxo-1-(pyridin-3-yl)ethyl)-3-methyloxirane-2-carboxamide], the “activity difference between the two separated diastereomers” value (SARS-CoV-2 Mpro) was > 10 fold, the IC50 (SARS-CoV-2 Mpro) was 1900 ± 210 nM and the “activity reduction vs. compound 30” value (SARS-CoV-2 Mpro) was ≤ 3 fold. The “EC68 (half-log reduction of virus titer)” value ([1]; Vero cells, 48 h) was 15 μM.

For `CC(C)(C)NC(=O)C(c1cccnc1)N(C(=O)CCl)c1ccc(-c2ccccc2)cc1` (centres unmarked) [Compound 14, N-([1,1’-Biphenyl]-4-yl)-N-(2-(tert-butylamino)-2-oxo-1-(pyridin-3-yl)ethyl)-2-chloroacetamide], the IC50 (SARS-CoV-2 Mpro) was 950 ± 40 nM.

`O=C(Nc1ccc(N(C(=O)c2ccco2)C(C(=O)NCc2ccccc2)c2cccnc2)cc1)C(Cl)Cl` (centres unmarked) [Compound 6, N-(2-(Benzylamino)-2-oxo-1-(pyridin-3-yl)ethyl)-N-(4-(2,2-dichloroacetamido)phenyl)furan-2-carboxamide] was tested, and the inhibition at 20 µM (SARS-CoV-2 Mpro) was 41%.

In the case of `CC(C)(C)NC(=O)C(c1cccnc1)N(C(=O)CCl)c1cccc(N)c1` (centres unmarked) [Compound 21, N-(3-Aminophenyl)-N-(2-(tert-butylamino)-2-oxo-1-(pyridin-3-yl)ethyl)-2-chloroacetamide], the inhibition at 20 µM (SARS-CoV-2 Mpro) is reported as 33%.
